{"source": "patent US20050159312A1", "about": "“Tryptophan aminotransferase, indole-3-pyruvate decarboxylase and indole-3-acetaldehyde oxidase as novel targets for herbicides” (priority 2002, published 2005)", "key": {"Chenopodium album": {"tested_on": "Chenopodium album", "assay": "Greenhouse herbicidal activity, post-emergence", "assay_type": "in vivo", "conditions": "1.0 kg a.s./ha", "source_text": "(§1) The culture containers used were plastic pots comprising loamy sand with approximately 3.0% humus as substrate. The seeds of the test plants were sown separately for each species. For the post-emergence treatment, the test plants were first grown to a plant height of from 3 to 15 cm, depending on the plant habit, and only then treated with the active ingredients which had been suspended or emulsified in water. To this end, the test plants were either sown directly and grown in the same containers, or they were first grown separately as seedlings and transplanted into the test containers a few days prior to treatment. […] Depending on the species, the plants were kept at from 10-25° C. or 20-35° C., respectively. The test period extended over 2 to 4 weeks. During this time, the plants were attended, and their response to the individual treatments was evaluated. Evaluation was carried out using a scale of from 0 to 100. 100 means no emergence of the plants, or complete destruction of at least the aerial parts, while 0 means no damage, or normal course of growth. The plants used in the greenhouse experiments belong to the following species: [table]"}, "Pharbitis purpurea": {"tested_on": "Pharbitis purpurea", "assay": "Greenhouse herbicidal activity, post-emergence", "assay_type": "in vivo", "conditions": "1.0 kg a.s./ha", "source_text": "as §1"}, "Echinocloa crus-galli": {"tested_on": "Echinocloa crus-galli", "assay": "Greenhouse herbicidal activity, post-emergence", "assay_type": "in vivo", "conditions": "1.0 kg a.s./ha", "source_text": "as §1"}, "[1]": {"tested_on": "indole-3-acetic acid (IEA) synthesis reaction", "assay": "Enzyme assay for inhibitors of indole-3-acetic acid (IEA, auxin) biosynthesis, enzyme extract from plant shoots", "assay_type": "biochemical, Chenopodium album", "protocol": "To obtain the enzyme extract, 2 g of frozen plant shoots of Chenopodium album (common lambsquarters), which had been comminuted in a pestle and mortar under liquid nitrogen, were defrosted at room temperature in 3 ml of 100 mM EPPS extraction buffer (5 mM dithiothreitol, 6 μM pyridoxal phosphate, 10 μM leupeptin, 10 μM Pefabloc SC, pH 8.5) together with a spatula-tipfull of polyvinyl pyrrolidone in the course of 30 minutes with gentle stirring. Thereafter, the plant material was centrifuged for 10 minutes at 4° C. and the supernatant was desalinified on a Sephadex G-25 column (preequilibrated with 5 mM EPPS elution buffer (1 mM dithiothreitol, 6 μM pyridoxal phosphate, 10 μM Pefabloc SC, pH 8.5). The resulting enzyme extract (400 μl) was incubated in the test assay (volume 600 μl) for 2 hours at 37° C. in the presence of 20 μM pyridoxal phosphate, 80 mM EPPS extraction buffer, 50 μM L-tryptophan, 50 μM α-ketoglutarate and 50 μM indole with addition of 100 μl of EPPS extraction buffer and 6 μl of active ingredient solution (10 mM compound I in DMSO). The control without compound I was treated with the corresponding amount of DMSO. The reaction was subsequently stopped by addition of 20 μl 7.2N HCl and 3 ml of ethyl acetate. The control assays without incubation were placed on ice and immediately treated with HCl and ethyl acetate. After reextraction with 3 ml of ethyl acetate, the organic phases (6 ml) are combined and concentrated under a nitrogen stream, and the samples are methylated with diazomethane. […] Thereafter, the amount of IEA-Me was determined immunoanalytically by means of monoclonal antibodies (100% reactivity to IEA-Me); (method of Weiler E. W., Eberle J., Mertens R., Atzorn R., Feyerabend M., Jourdan P. S., Arnscheidt A., Wieczorek U., in: Immunology in Plant Science (Wang T. L., Ed.), Society for Experimental Biology, Seminar Series 29, Cambridge University Press, Cambridge, 1986, pp. 27-58) and used as measurement for the enzyme activities."}}, "data": [{"molecule": "CNC(=O)C(CNC(=O)c1ccccc1F)NC(=O)c1ccc(C(F)(F)F)cc1F", "note": "(stereo not drawn) [compound I]", "values": [{"measurement": "herbicidal efficiency", "setting": "Chenopodium album", "result": "very good herbicidal efficiency"}, {"measurement": "herbicidal efficiency", "setting": "Pharbitis purpurea", "result": "very good herbicidal efficiency"}, {"measurement": "herbicidal efficiency", "setting": "Echinocloa crus-galli", "result": "very good herbicidal efficiency"}, {"measurement": "pMol IEA-Me/g fresh shoot weight", "setting": "[1]; 100 μM compound I, incubation 2 hours at 37° C., mean from three measurements", "result": "156.0 +/− 14.8 pMol IEA-Me/g fresh shoot weight"}, {"measurement": "Inhibition [%]", "setting": "[1]; 100 μM compound I, incubation 2 hours at 37° C., control value without incubation subtracted", "result": 73, "unit": "%"}, {"measurement": "synthesis of indole-3-acetic acid from L-tryptophan", "setting": "[1]; in vitro", "result": "inhibited"}]}]}
